Results as given in a melting point compilation (Tetko et al.; mined from patent text by program, amines drawn as free bases though some values may be those of a salt).

| SMILES | melting point [°C] |
| --- | --- |
| CC(C)(C)c1cc(SC(Sc2cc(C(C)(C)C)c(O)c(C(C)(C)C)c2)Sc2cc(C(C)(C)C)c(O)c(C(C)(C)C)c2)cc(C(C)(C)C)c1O | 217 to 220 |
| COCCN(C)CC(=O)N(C)Cc1ccc(C(=O)Nc2nc3c(OC)ccc(N4CCOCC4)c3s2)cc1 | 171 to 173 |
| CNC(=O)C(Cc1ccccc1)NC(=O)C(CC(C)C)C(S)CC(=O)OC (stereo unspecified) | 169 to 171 |
| COc1cc2c(c(OC(C)=O)c1)C1CCC3(C)C(O)CCC3C1CC2 (stereo unspecified) | 107 to 110 |
| Cc1cc(C)cc(C(=O)NC(C#N)n2cccn2)c1 (stereo unspecified) | 180 to 183 |
| COc1cc(N2CCCN(C)CC2)ccc1Nc1ncc2ccc(-c3ccccc3OC)n2n1 | 69 to 77 |
| O=C(NC(=O)C(c1ccccc1)c1ccccc1)OCCN1CCOCC1 | 135 to 137 |
| COC(=O)c1sc2c(c1OC(C)C)CN(C(=O)OC(C)(C)C)CC2 | 76 to 81 |
| O=c1oc2ccccc2c(O)c1C(Sc1ccc(Cl)cc1)c1cc(F)ccc1F (stereo unspecified) | 146 to 147 |
| ClC(Cl)(Cl)C1NCC(c2ccccc2)O1 (stereo unspecified) | 58 to 64 |
| COc1ccc(C2CCN(C(=O)C(=O)NO)CC2)cc1C=C1CCCC1 | 127 to 128 |
| CCOC(=O)C(=NO)c1ccc(Oc2ccccc2)cc1 | 131 to 132 |
| Cc1c(C(=O)O)oc2cc(SC(=O)N(C)C)ccc12 | 188 to 190 |
| Clc1ccc(OCc2ccc3ccccc3n2)cc1 | 92 to 94 |
| Cc1oc(-c2ccccc2)nc1COc1cccc(C#CC(C)n2oc(=O)[nH]c2=O)c1 (stereo unspecified) | 55 to 57 |
| N#Cc1ccc(NC(=O)CN2CCC(Cc3ccccc3)CC2)cc1 | 120 to 124 |
| O=C(O)C(S)c1ccc(Cl)cc1 (stereo unspecified) | 123 to 125 |
| Oc1ccc(NC2Cc3ccccc3C2)cc1 | 165 to 167 |
| COC(=O)c1cc(CI)on1 | 91 to 95 |
| Nc1cccc(-c2nc3ncccc3o2)c1 | 179 to 180 |
| CC1(c2[nH]c3ccccc3c2C2=C(Cl)C(=O)C=C(Cl)C2=O)CC1 | 170 to 171 |

| SMILES | melting point [°C] |
| --- | --- |
| CCN(C)c1nsc(NC(=O)NC)c1C(N)=O | 165 to 168 |
| COc1ccc(OC)c(/C=C/C(=O)/C=C/C(=O)O)c1 | 145 to 146 |
| Cc1onc(NS(=O)(=O)c2ccc([N+](=O)[O-])cc2)c1Br | 161 to 163 |
| CSc1nc(C#N)c(C#N)nc1SC | 139 to 142 |
| CC12CCC3c4ccc(O)cc4CCC3C1CCC2=CCl (stereo unspecified) | 130 to 133 |
| C=CCN(C(=O)NC(C)(C)C)c1nc(NC(=O)NC(C)(C)C)c2cc([N+](=O)[O-])ccc2n1 | 105 to 106 |
| COc1c(C)c(C)c(OC)c(CC=C(C)CO)c1C | 85 to 86 |
| O=[N+]([O-])c1cccc(Nc2nccc(-c3ccncc3)n2)c1 | 282 to 284 |
| CCc1[nH]nc2c1C(=O)c1c(NC(N)=O)cccc1-2 | > 250 |
| CC(=O)NC[C@H]1CN(c2ccc(N3CCC(F)(COS(C)(=O)=O)CC3)c(F)c2)C(=O)O1 | 182 to 183 |
| Cc1nnc2n1-c1sc(C#Cc3ccccc3)cc1C(c1ccccc1Cl)=NC2 | 215 to 217 |
| COc1cc2c(CCN)c(C)[nH]c2c(Cl)c1Cl | 184 to 186 |
| COc1cc2c(cn1)OCC21C(=O)N(C(c2ccccc2)c2ccccc2)c2ccccc21 (stereo unspecified) | 177 to 178 |
| O=C(O)c1cc(C(=O)O)cc(P(=O)(c2ccccc2)c2ccccc2)c1 | 283 to 286 |
| CNc1ccc([N+](=O)[O-])cc1[N+](=O)[O-] | 177 to 178 |
| CS(=O)(=O)Nc1ccc(NCC(=O)N2CCC(Cc3ccc(Cl)cc3)CC2)cc1 | 70 |
| O=C(O)C1C=Nc2c(ccc3cc(C(=O)N4CCc5ccccc5C4)cnc23)C1=O (stereo unspecified) | 171 to 182 |
| CCOC(=O)COc1cccc2c1CCc1sc(S(=O)(=O)C(c3ccccc3)c3ccccc3)nc1-2 | 184 to 187 |
| COc1cccc(-c2nc(Cl)nc(Nc3cccc([N+](=O)[O-])c3)n2)c1 | 155 |
| O=C(O)c1cn(CC2CCC2)c2cc(Cl)ccc12 | 191 to 193 |
| CN1CCN(CCC#Cc2csc3ncc(C#N)c(Nc4ccc5[nH]ccc5c4)c23)CC1 | 184 to 186 |

The next lines start with the values.

| melting point [°C] | SMILES |
| --- | --- |
| 180 to 181 | CC(C)(C)c1ccccc1N1CCN(C(=O)c2ncoc2CCC(=O)O)CC1 |
| 128 to 130 | CCOCc1nc2c(N)nc3cc(Br)ccc3c2n1CC1(O)CCCC1 |
| 98 | C=CCc1cc(CC(N)=O)ccc1OCC(O)CNCCC(=O)OCC (stereo unspecified) |
| 129 to 131 | OCc1cc(-c2nnc3c4ccccc4c(OCc4ccccn4)nn23)no1 |
| 106 to 107 | CCOc1ccc(CO)c(Oc2ccc(Cl)cc2Cl)n1 |
| 54 to 55 | COC(=O)CCc1cnoc1-c1ccc(Cl)c(Br)c1 |
| 184 to 186 | COc1ccc2[nH]c(C(=O)NCCN(C)C)c(-c3ccccc3F)c2c1 |
| 141 to 142 | N#CCCn1ccc(NC(N)=NCC(F)(F)F)n1 |
| 214 | O=C(O)/C(=C/c1cnc(CCc2ccccc2)n1Cc1ccc(C(=O)O)cc1)Cc1cccs1 |
| 113 to 115 | COC(=O)/C=C/c1ccc(-c2ccc(C)cc2)o1 |
| 85 to 89 | CCn1c(-c2ccc(-n3ccnc3)cc2)cnc1[C@H](Cc1ccccn1)N(C=O)c1cc2cc(C(F)(F)F)ccc2o1 |
| 228 to 229 | CN(c1cccs1)c1n[nH]c2ncnc(Nc3cccc(Cl)c3)c12 |
| 204 to 206 | O=C(NCc1ccc(Cl)cc1)c1cn2c(CCO)cc3cc(CC4CCOCC4)cc(c1=O)c32 |
| 168 to 169 | N#Cc1cccc(CCc2nnc(-c3ccc4nccn4c3)o2)c1 |
| 219 to 220 | CC(C)n1nc(-c2sc(NC(=O)c3ccccc3C(F)(F)F)nc2-c2ccccc2)ccc1=O |
| 65 to 67 | CCCCCCCCCCCCCCOc1ccc(CN(C(=O)c2cccnc2)c2ccccc2)cc1 |
| 85 to 86 | CCOc1nn(-c2ccc(C(F)(F)F)cn2)cc1CCCO |
| 204 to 205 | COc1ccc2[nH]c(C(N)=O)cc2c1 |
| 108 to 110 | CCOC(=O)c1cc(Br)c(OCCO)c(-c2cccc(Cl)c2)c1 |
| 208 to 211 | COc1cc(C(=O)NS(=O)(=O)c2ccccc2Cl)ccc1Cc1cn(C)c2ccc(CCNC(=O)N(C)C)cc12 |
| 202 | Cc1cc2nc(Cl)c3cccnc3n2n1 |
| 116 to 117 | Cc1cc(CCCOc2c(C)cc(N3COC(CO)=N3)cc2C)on1 |
| 201 | Cc1c(NC(=O)c2ccc(OC[C@@H]3CCCO3)cc2)ccc2cc(CNCC(C)(C)C)n(C)c12 |
| 140 to 143 | CC1(C)C2CCC1(C)C(C(=O)OC(CSc1ccccc1)(C(=O)Nc1ccc(C#N)c(C(F)(F)F)c1)C(F)(F)F)C2 (stereo unspecified) |
| 136 to 138 | CC(C)OC(=O)C(C(=O)c1ccc2c(c1)OCO2)=C1SC=CS1 |
| 209 to 211 | NC(=O)c1c(Cl)c(-c2ccccc2)n2c1CN(S(=O)(=O)Nc1ccc(C(F)(F)F)cc1)CC2 |
| 170 to 172 | O=C(O)c1ccc(OCCCCCCc2cccc(O)c2O)cc1 |
| > 108 | CCCCc1nn2c(-c3ccccc3)c(C)nc2n1Cc1ccc(-c2ccccc2-c2nnn[nH]2)cc1 |
| > 250 | Cc1nc(-c2ccc(=O)n(C(C)C)n2)c(-c2ccccc2)nc1O |
